Measurements reported in DBAASP.
≈ marks a conversion by molar mass, not a printed value. Where “and” joins values, the source holds several entries; their conditions need not be identical. Identical values can stand only once.

How the values were obtained:
Test in all cases: ≥ marks a high value that may be exact or a test limit, other limits are often not marked, values filed in µg/mL are converted to µM
[1] = system: Staphylococcus aureus ATCC 25923
[2] = system: Escherichia coli ATCC 25922
[3] = system: Candida albicans ATCC 90112
[4] = system: Streptococcus pyogenes
[5] = system: Proteus mirabilis
[6] = system: Stenotrophomonas maltophilia ATCC 13637
[7] = system: Micrococcus luteus ATCC 10240
[8] = system: Staphylococcus epidermidis
[9] = system: Pseudomonas aeruginosa ATCC 27853
[10] = system: Bacillus subtilis ATCC 6633
[11] = system: Staphylococcus aureus
[12] = system: Candida tropicalis
[13] = system: Cryptococcus neoformans ATCC 28957
[14] = system: Bacillus cereus ATCC 14579
[15] = system: Streptococcus uberis
[16] = system: Pseudomonas syringae pv. tabaci
[17] = system: Staphylococcus aureus ATCC 29313
[18] = system: Candida albicans
[19] = system: Xanthomonas axonopodis pv. glycines ISBF 327
[20] = system: Acinetobacter calcoaceticus
[21] = system: Xanthomonas campestris pv. citri
[22] = system: Fusarium oxysporum
[23] = system: Pectobacterium carotovorum
[24] = system: Candida albicans ATCC 1023
[25] = system: Ramulariopsis gossypii
[26] = system: Fusarium solani
[27] = system: Escherichia coli
[28] = system: Streptococcus dysgalactiae
[29] = system: Trichoderma asperellum
[30] = system: Rhizoctonia solani
[31] = system: Bacillus subtilis ATCC 23857
[32] = system: Candida albicans ATCC 90028
[33] = system: Salmonella typhimurium KCTC 1926
[34] = system: Pseudomonas aeruginosa KCTC 1637
[35] = system: Staphylococcus aureus CCARM 3543
[36] = system: Acinetobacter baumannii ATCC 17978
[37] = system: Escherichia coli NCTC 12923
[38] = system: Staphylococcus epidermidis KCTC 1917
[39] = system: Staphylococcus aureus USA 300
[40] = system: Klebsiella pneumoniae NCTC 13368
[41] = system: Escherichia coli KCTC 1682
[42] = system: Pseudomonas aeruginosa PAO1
[43] = system: Staphylococcus aureus KCTC 1621
[44] = system: Staphylococcus aureus CCARM 3001
[45] = system: Staphylococcus aureus ATCC 9144
[46] = system: Pseudomonas aeruginosa NCTC 13437
[47] = system: Pseudomonas aeruginosa CCARM 2095
[48] = system: Candida albicans ATCC 36232
[49] = system: Micrococcus luteus ATCC 9341
[50] = system: Staphylococcus aureus ATCC 6538
[51] = system: Spiroplasma floricola BNR 1
[52] = system: Acholeplasma laidlawii A-EF22
[53] = system: Mycoplasma mycoides ssp. mycoides SC KH3J
[54] = system: Spiroplasma citri R8A2
[55] = system: Spiroplasma melliferum BC3

## CC[C@H](C)[C@H](NC(=O)CNC(=O)[C@H](CCSC)NC(=O)[C@@H](NC(=O)[C@H](CC(=O)O)NC(=O)[C@@H](N)Cc1ccccc1)C(C)C)C(=O)N[C@H](C(=O)N[C@@H](CCCCN)C(=O)N[C@@H](CCCCN)C(=O)N[C@H](C(=O)N[C@@H](C)C(=O)N[C@@H](CO)C(=O)N[C@@H](C)C(=O)N[C@@H](CC(C)C)C(N)=O)[C@@H](C)CC)[C@@H](C)CC [FDVMGIIKKIASAL]
[1]
  MIC: 30 µM (≈ 45.1 µg/mL)
[2]
  MIC: 30 µM (≈ 45.1 µg/mL)
[3]
  MIC: 7.5 µM (≈ 11.3 µg/mL)
[4]
  MIC: 30 µM (≈ 45.1 µg/mL)
[5]
  MIC: ≥ 60 µM
[6]
  MIC: 30 µM (≈ 45.1 µg/mL)
[7]
  MIC: 30 µM (≈ 45.1 µg/mL)
[8]
  MIC: 30 µM (≈ 45.1 µg/mL)
[9]
  MIC: > 30 µM
[10]
  MIC: 30 µM (≈ 45.1 µg/mL)

## CC[C@H](C)[C@H](NC(=O)[C@H](C)NC(=O)[C@H](C)NC(=O)[C@H](CCC(=O)O)NC(=O)[C@H](CCCCN)NC(=O)CNC(=O)[C@H](CCCCN)NC(=O)[C@H](CCC(N)=O)NC(=O)[C@H](CCCCN)NC(=O)[C@@H](NC(=O)[C@@H](NC(=O)[C@H](CO)NC(=O)[C@H](Cc1c[nH]c2ccccc12)NC(=O)[C@H](CC(C)C)NC(=O)CN)[C@@H](C)O)[C@@H](C)CC)C(=O)N[C@@H](C)C(=O)N[C@@H](C)C(=O)N[C@@H](C)C(=O)N[C@@H](CCCCN)C(=O)N[C@@H](C)C(=O)N[C@@H](C)C(=O)NCC(=O)N[C@@H](CCC(N)=O)C(=O)N[C@@H](C)C(=O)N[C@@H](C)C(=O)N[C@@H](CC(C)C)C(=O)NCC(=O)N[C@@H](C)C(=O)N[C@@H](CC(C)C)C(N)=O [GLWSTIKQKGKEAAIAAAKAAGQAALGAL]
[11]
  MIC: 12.8 µM and 5.7 µM
[12]
  MIC: 0.37 µM (≈ 1.03 µg/mL)
[13]
  MIC: 8 µM (≈ 22.4 µg/mL)
[14]
  MIC: 16 µM (≈ 44.7 µg/mL)
[1]
  MIC: 3.2 µM and 8 µM
[15]
  MIC: 5.7 µM (≈ 15.9 µg/mL)
[16]
  MIC: 1 µM (≈ 2.79 µg/mL)
[17]
  MIC: 11 µM (≈ 30.7 µg/mL)
[18]
  MIC: 5.7 µM (≈ 15.9 µg/mL)
[19]
  MIC: 1 µM (≈ 2.79 µg/mL)
[20]
  MIC: 25.7 µM (≈ 71.7 µg/mL)
[21]
  MIC: 0.5 µM (≈ 1.4 µg/mL)
[22]
  MIC: 16 µM (≈ 44.7 µg/mL)
[23]
  MIC: 0.5 µM (≈ 1.4 µg/mL)
[24]
  MIC: 5.7 µM (≈ 15.9 µg/mL)
[25]
  MIC: 8 µM (≈ 22.4 µg/mL)
[26]
  MIC: 16 µM (≈ 44.7 µg/mL)
[27]
  MIC: 6.42 µM (≈ 17.9 µg/mL)
[28]
  MIC: 5.7 µM (≈ 15.9 µg/mL)
[29]
  MIC: 8 µM (≈ 22.4 µg/mL)
[30]
  MIC: ≥ 64 µM
[31]
  MIC: 1 µM (≈ 2.79 µg/mL)
[32]
  MIC: 4 µM (≈ 11.2 µg/mL)

## CC[C@H](C)[C@H](N)C(=O)N[C@@H](CC(C)C)C(=O)NCC(=O)N[C@@H](CCCCN)C(=O)N[C@H](C(=O)N[C@@H](Cc1c[nH]c2ccccc12)C(=O)N[C@@H](CCCCN)C(=O)N1CCC[C@H]1C(=O)N[C@H](C(=O)N[C@@H](CCCCN)C(=O)N[C@@H](CCCCN)C(=O)N[C@@H](CC(C)C)C(=O)N[C@@H](Cc1ccccc1)C(N)=O)[C@@H](C)CC)[C@@H](C)CC [ILGKIWKPIKKLF]
[33]
  MIC: 1 µM (≈ 1.58 µg/mL)
[34]
  MIC: 2 µM (≈ 3.17 µg/mL)
[35]
  MIC: 0.5 µM (≈ 0.792 µg/mL)
[36]
  MIC: 5.05 µM (≈ 8 µg/mL)
[37]
  MIC: 10.1 µM (≈ 16 µg/mL)
[38]
  MIC: 1 µM (≈ 1.58 µg/mL)
[39]
  MIC: ≥ 40.4 µM
[40]
  MIC: ≥ 40.4 µM
[41]
  MIC: 2 µM (≈ 3.17 µg/mL)
[42]
  MIC: > 80.8 µM
[43]
  MIC: 2 µM (≈ 3.17 µg/mL)
[44]
  MIC: 1 µM (≈ 1.58 µg/mL)
[45]
  MIC: 5.05 µM (≈ 8 µg/mL)
[46]
  MIC: ≥ 40.4 µM
[47]
  MIC: 1 µM (≈ 1.58 µg/mL)

## CC(C)[C@H](NC(=O)[C@H](CCCCN)NC(=O)[C@H](Cc1ccccc1)NC(=O)[C@@H](NC(=O)[C@@H](NC(=O)[C@H](CCCCN)NC(=O)[C@H](CCCCN)NC(=O)[C@@H](N)CCCCN)C(C)C)C(C)C)C(=O)N[C@@H](CCCCN)C(=O)N[C@@H](Cc1ccccc1)C(=O)N[C@@H](CCCCN)C(=O)N[C@@H](CCCCN)C(N)=O [KKKVVFKVKFKK]
[48]
  MIC: 4.15 µM and 2.08 µM
[49]
  MIC: 2.08 µM (≈ 3.13 µg/mL)
[50]
  MIC: 2.08 µM (≈ 3.13 µg/mL)

## CC(C)C[C@H](NC(=O)[C@H](CCCCN)NC(=O)[C@H](CC(C)C)NC(=O)[C@H](CC(C)C)NC(=O)[C@H](CC(C)C)NC(=O)[C@H](CCCCN)NC(=O)[C@H](CC(C)C)NC(=O)[C@H](CC(C)C)NC(=O)[C@H](CC(C)C)NC(=O)[C@H](CCCCN)NC(=O)[C@H](CC(C)C)NC(=O)[C@H](CC(C)C)NC(=O)[C@@H](N)CCCCN)C(=O)N[C@@H](Cc1c[nH]c2ccccc12)C(=O)N[C@@H](CCCCN)C(=O)O [KLLKLLLKLLLKLWK]
[51]
  MIC: 6.25 µM (≈ 11.6 µg/mL)
[52]
  MIC: 1.56 µM (≈ 2.91 µg/mL)
[53]
  MIC: 6.25 µM (≈ 11.6 µg/mL)
[54]
  MIC: 6.25 µM (≈ 11.6 µg/mL)
[55]
  MIC: 6.25 µM (≈ 11.6 µg/mL)
